Results as given in patent US12239627B2, “Method of treating conditions related to the PGI2 receptor” (Arena Pharmaceuticals, Inc., priority 2014, dated 2025).

Assay: Phase 1 multiple ascending dose, dose titration study with healthy subjects (adverse events, tolerated dose)
Type: in vivo, human
Conditions: for Adverse Events (no. of subjects) leading to Decrease of Dose: Abdominal pain / Adverse Events (no. of subjects) leading to Decrease of Dose: Arthralgia / Adverse Events (no. of subjects) leading to Decrease of Dose: Chest discomfort / Adverse Events (no. of subjects) leading to Decrease of Dose: Chest pain / Adverse Events (no. of subjects) leading to Decrease of Dose: Diarrhoea / Adverse Events (no. of subjects) leading to Decrease of Dose: Dizziness / Adverse Events (no. of subjects) leading to Decrease of Dose: Headache / Adverse Events (no. of subjects) leading to Decrease of Dose: Jaw pain / Adverse Events (no. of subjects) leading to Decrease of Dose: Myalgia / Adverse Events (no. of subjects) leading to Decrease of Dose: Nausea / Adverse Events (no. of subjects) leading to Decrease of Dose: Palpitations / Adverse Events (no. of subjects) leading to Decrease of Dose: Priapism / Adverse Events (no. of subjects) leading to Decrease of Dose: Vomiting: Cohort 3, twice daily
Experimental: This study was a phase 1, randomized, double-blind, placebo-controlled, multiple-dose, dose titration study. A titration interval of 6 days was employed, with each dose being administered for at least 5 days. One goal was to determine the effect of dose titration on adverse effects.
In each of two subject cohorts, Cohort 1 and Cohort 2, subjects were treated at each dose level for duration of 5 days with exception of the last dose level which included 7 days of treatment.
The protocol was amended to provide for an additional cohort, Cohort 3, in order to evaluate a different dose escalation regimen, as disclosed below.
Cohorts 1 and 2: Two groups of 15 subjects were enrolled and randomized to receive placebo (5 subjects per Cohort) or a starting dose of 0.05 mg Compound 1 (10 subjects per Cohort) on Day I. Once daily (q.d.) dosing continued through 5 days. If tolerated, the next dose escalation (placebo or 0.1 mg q.d. Compound 1) occurred on Day 6 and this dose was administered daily through Day 10.
Subsequent dose escalations were to occur in the same manner every 6th day for up to 3 additional dose escalations if tolerated (placebo or 0.2, 0.3, and 0.4 mg Compound 1) with the final dose maintained for a duration of 7 days. The dose could be decreased (“de-escalated”) or increased (“re-escalated”) based on assessment of safety and tolerability.
Cohort 3: One group of 25 subjects (S placebo and 20 active) were enrolled and randomized to receive a starting dose of 0.01 mg Compound 1 twice daily or placebo on Day 1. Twice daily dosing continued through 5 days. If tolerated, the next dose escalation (placebo or Compound 1 0.02 mg twice daily) occurred on Day 6 and this dose was administered daily through Day 10. Subsequent dose escalations were to occur in the same manner every 6th day for up to 4 additional dose escalations if tolerated (placebo or 0.03, 0.04. 0.05, and 0.07 mg twice daily Compound 1). The dose could be decreased (“de-escalated”) or increased (“re-escalated”) based on assessment of safety and tolerability. The doses tested in this cohort were 0.01, 0.02, 0.03, 0.04, 0.05, and 0.07 mg administered twice daily for a total daily dose of 0.02, 0.04, 0.06, 0.08, 0.1, and 0.14 mg, respectively.
Compound 1 capsules were provided as 0.01 mg (all Cohorts) and 0.1 mg (Cohorts 1 and 2 only) strengths.

## O=C(O)COC[C@H]1CC[C@H](COC(=O)N(c2ccccc2)c2ccc(Cl)cc2)CC1 [Compound 1, 2-(((1r,4r)-4-(((4-chlorophenyl)(phenyl)carbamoyloxy)methyl)cyclohexyl)methoxy)acetic acid]
Cohort 3
  Subjects who received 0.04 mg as highest dose for at least 3 days: 0.04 mg-20 subjects
  Subjects who received 0.06 mg as highest dose for at least 3 days: 0.06 mg-19 subjects
  Subjects who received 0.08 mg as highest dose for at least 3 days: 0.08 mg-11 subjects
  Subjects who received 0.10 mg as highest dose for at least 3 days: 0.10 mg-8 subjects
  Subjects who received 0.14 mg as highest dose for at least 3 days: 0.14 mg-3 subjects
  Subjects with Final Compound 1 Total Daily Dose of 0.04 mg: 0.04 mg-4 subjects
  Subjects with Final Compound 1 Total Daily Dose of 0.06 mg: 0.06 mg-6 subjects
  Subjects with Final Compound 1 Total Daily Dose of 0.08 mg: 0.08 mg-2 subjects
  Subjects with Final Compound 1 Total Daily Dose of 0.10 mg: 0.10 mg-6 subjects
  Subjects with Final Compound 1 Total Daily Dose of 0.14 mg: 0.14 mg-2 subjects
0.01 mg (N = 20)
  Adverse Events (no. of subjects) leading to Decrease of Dose: Abdominal pain: 0 subjects
  Adverse Events (no. of subjects) leading to Decrease of Dose: Arthralgia: 0 subjects
  Adverse Events (no. of subjects) leading to Decrease of Dose: Chest discomfort: 0 subjects
  Adverse Events (no. of subjects) leading to Decrease of Dose: Chest pain: 0 subjects
  Adverse Events (no. of subjects) leading to Decrease of Dose: Diarrhoea: 0 subjects
  Adverse Events (no. of subjects) leading to Decrease of Dose: Dizziness: 0 subjects
  Adverse Events (no. of subjects) leading to Decrease of Dose: Headache: 1 subjects
  Adverse Events (no. of subjects) leading to Decrease of Dose: Jaw pain: 0 subjects
  Adverse Events (no. of subjects) leading to Decrease of Dose: Myalgia: 1 subjects
  Adverse Events (no. of subjects) leading to Decrease of Dose: Nausea: 0 subjects
  Adverse Events (no. of subjects) leading to Decrease of Dose: Palpitations: 0 subjects
  Adverse Events (no. of subjects) leading to Decrease of Dose: Priapism: 0 subjects
  Adverse Events (no. of subjects) leading to Decrease of Dose: Vomiting: 0 subjects
0.02 mg (N = 20)
  Adverse Events (no. of subjects) leading to Decrease of Dose: Abdominal pain: 0 subjects
  Adverse Events (no. of subjects) leading to Decrease of Dose: Arthralgia: 1 subjects
  Adverse Events (no. of subjects) leading to Decrease of Dose: Chest discomfort: 0 subjects
  Adverse Events (no. of subjects) leading to Decrease of Dose: Chest pain: 1 subjects
  Adverse Events (no. of subjects) leading to Decrease of Dose: Diarrhoea: 1 subjects
  Adverse Events (no. of subjects) leading to Decrease of Dose: Dizziness: 0 subjects
  Adverse Events (no. of subjects) leading to Decrease of Dose: Headache: 6 subjects
  Adverse Events (no. of subjects) leading to Decrease of Dose: Jaw pain: 0 subjects
  Adverse Events (no. of subjects) leading to Decrease of Dose: Myalgia: 2 subjects
  Adverse Events (no. of subjects) leading to Decrease of Dose: Nausea: 3 subjects
  Adverse Events (no. of subjects) leading to Decrease of Dose: Palpitations: 1 subjects
  Adverse Events (no. of subjects) leading to Decrease of Dose: Priapism: 0 subjects
  Adverse Events (no. of subjects) leading to Decrease of Dose: Vomiting: 1 subjects
0.03 mg (N = 20)
  Adverse Events (no. of subjects) leading to Decrease of Dose: Abdominal pain: 1 subjects
  Adverse Events (no. of subjects) leading to Decrease of Dose: Arthralgia: 0 subjects
  Adverse Events (no. of subjects) leading to Decrease of Dose: Chest discomfort: 1 subjects
  Adverse Events (no. of subjects) leading to Decrease of Dose: Chest pain: 0 subjects
  Adverse Events (no. of subjects) leading to Decrease of Dose: Diarrhoea: 1 subjects
  Adverse Events (no. of subjects) leading to Decrease of Dose: Dizziness: 0 subjects
  Adverse Events (no. of subjects) leading to Decrease of Dose: Headache: 1 subjects
  Adverse Events (no. of subjects) leading to Decrease of Dose: Jaw pain: 0 subjects
  Adverse Events (no. of subjects) leading to Decrease of Dose: Myalgia: 1 subjects
  Adverse Events (no. of subjects) leading to Decrease of Dose: Nausea: 1 subjects
  Adverse Events (no. of subjects) leading to Decrease of Dose: Palpitations: 0 subjects
  Adverse Events (no. of subjects) leading to Decrease of Dose: Priapism: 1 subjects
  Adverse Events (no. of subjects) leading to Decrease of Dose: Vomiting: 0 subjects
0.04 mg (N = 12)
  Adverse Events (no. of subjects) leading to Decrease of Dose: Abdominal pain: 0 subjects
  Adverse Events (no. of subjects) leading to Decrease of Dose: Arthralgia: 0 subjects
  Adverse Events (no. of subjects) leading to Decrease of Dose: Chest discomfort: 0 subjects
  Adverse Events (no. of subjects) leading to Decrease of Dose: Chest pain: 0 subjects
  Adverse Events (no. of subjects) leading to Decrease of Dose: Diarrhoea: 0 subjects
  Adverse Events (no. of subjects) leading to Decrease of Dose: Dizziness: 2 subjects
  Adverse Events (no. of subjects) leading to Decrease of Dose: Headache: 1 subjects
  Adverse Events (no. of subjects) leading to Decrease of Dose: Jaw pain: 0 subjects
  Adverse Events (no. of subjects) leading to Decrease of Dose: Myalgia: 0 subjects
  Adverse Events (no. of subjects) leading to Decrease of Dose: Nausea: 0 subjects
  Adverse Events (no. of subjects) leading to Decrease of Dose: Palpitations: 0 subjects
  Adverse Events (no. of subjects) leading to Decrease of Dose: Priapism: 0 subjects
  Adverse Events (no. of subjects) leading to Decrease of Dose: Vomiting: 0 subjects
0.05 mg (N = 8)
  Adverse Events (no. of subjects) leading to Decrease of Dose: Abdominal pain: 1 subjects
  Adverse Events (no. of subjects) leading to Decrease of Dose: Arthralgia: 0 subjects
  Adverse Events (no. of subjects) leading to Decrease of Dose: Chest discomfort: 0 subjects
  Adverse Events (no. of subjects) leading to Decrease of Dose: Chest pain: 0 subjects
  Adverse Events (no. of subjects) leading to Decrease of Dose: Diarrhoea: 0 subjects
  Adverse Events (no. of subjects) leading to Decrease of Dose: Dizziness: 1 subjects
  Adverse Events (no. of subjects) leading to Decrease of Dose: Headache: 0 subjects
  Adverse Events (no. of subjects) leading to Decrease of Dose: Jaw pain: 0 subjects
  Adverse Events (no. of subjects) leading to Decrease of Dose: Myalgia: 0 subjects
  Adverse Events (no. of subjects) leading to Decrease of Dose: Nausea: 0 subjects
  Adverse Events (no. of subjects) leading to Decrease of Dose: Palpitations: 0 subjects
  Adverse Events (no. of subjects) leading to Decrease of Dose: Priapism: 0 subjects
  Adverse Events (no. of subjects) leading to Decrease of Dose: Vomiting: 0 subjects
0.07 mg (N = 4)
  Adverse Events (no. of subjects) leading to Decrease of Dose: Abdominal pain: 0 subjects
  Adverse Events (no. of subjects) leading to Decrease of Dose: Arthralgia: 1 subjects
  Adverse Events (no. of subjects) leading to Decrease of Dose: Chest discomfort: 0 subjects
  Adverse Events (no. of subjects) leading to Decrease of Dose: Chest pain: 0 subjects
  Adverse Events (no. of subjects) leading to Decrease of Dose: Diarrhoea: 0 subjects
  Adverse Events (no. of subjects) leading to Decrease of Dose: Dizziness: 0 subjects
  Adverse Events (no. of subjects) leading to Decrease of Dose: Headache: 1 subjects
  Adverse Events (no. of subjects) leading to Decrease of Dose: Jaw pain: 1 subjects
  Adverse Events (no. of subjects) leading to Decrease of Dose: Myalgia: 0 subjects
  Adverse Events (no. of subjects) leading to Decrease of Dose: Nausea: 1 subjects
  Adverse Events (no. of subjects) leading to Decrease of Dose: Palpitations: 0 subjects
